Data taken from article PMC6331809, “Antigenotoxicity and Tumor Growing Inhibition by Leafy Brassica carinata and Sinigrin” (Molecules, 2015).
Values after ≈ are worked out from the molar mass of the structure shown. Values joined by “and” are separate entries in the source; they are usually repeats but may differ in a detail not shown here. Equal values may be shown once. Read-outs that look alike come from different tables or passages of the source. Marks after values point to notes of the source that are not given here.

Tests used:
[1] = tested on: induced hepatocarcinogenesis in rats; set-up: method as in PMID 2387027; dose or concentration left out as unconfirmed; settings: orally in a diet; cited from earlier work
[2] = tested on: Drosophila melanogaster
Method: (§1) The genotoxic and antigenotoxic activity of lyophilized leaves of B. carinata and sinigrin were evaluated by the Drosophila Somatic Mutation and Recombination Test (SMART). Drosophila is a holometabolous animal which in vivo experiments permit to make analogies with humans due to the high percentage of homologue genes in common with human. […] Both characteristics make this test an optimal protocol in order to test molecules and complex mixtures with health benefices for humans. Two different D. melanogaster strains carrying visible wing genetic markers on the left arm of chromosome 3 were used: the flare (flr) strain flr^3/ln (3LR) TM3, Bd^s and the multiple wing-hair (mwh) strain mwh/mwh. These markers were selected due to their position in the Drosophila genome, covering a wide portion of one of their four chromosomes. Specifically, they affect the wing imaginal disks which present more cells with a uniform growth during larvae development than other Drosophila imaginal disks. This fact makes possible to detect easily a high number of mutations, somatic recombinations and disjunctions produced in the Drosophila DNA during all treatment periods by wing microscopic observation. In this sense, these markers are present in other genetic background (strains) but crosses produce mutations with a basal mutation rate too high and disturbing hair anomalous pattems. The marker flare (flr^3, 3_38.3) is a recessive mutation which produces individual wing hairs that are malformed. The flr^3 allele is a zygotic recessive lethal, which is maintained in the strain over the balancer chromosome TM3 (TM3, Bd^S: Third Multiple 3, Beaded-Serrate). The marker multiple wing hairs (mwh, 3_0.3) is a recessive mutation that is viable in homozygous flies, producing multiple hairs per cell instead of the wild type single-hair trichome. Two types of crosses were used: the standard cross with flr^3/TM3, Bd^S females mated to mwh/mwh males and the reciprocal cross.
(§2) Hybrid eggs from crossing optimally fertile flies were collected over an 8-h period. Emerged larvae, 72 ± 4 h later, were cleaned up from remaining feeding medium, using sterile distilled water, and subsequently were transferred into treatment vials. These vials contained tested conditions which consisted of 0.85 g of Drosophila Instant Medium (Formula 4–24, Carolina Biological Supply, Burlington, NC, USA) wetted with 4 mL of a mixture of distilled-sterile water and the appropriate concentration of lyophilized plant or the single compound sinigrin.
(§3) Genotoxicity/antigenotoxicity tests were performed following the standard protocol. Antigenotoxicity tests were carried out by mixing the genotoxin hydrogen peroxide (H2O2, Sigma-Aldrich) with the plant or single compound in appropriate concentrations.
(§4) The groups consisting of approximately 100 larvae each were: (i) negative control (distilled water); (ii) mutagenic positive control (H2O2 0.12 M); (iii) 3 vials with increasing concentrations of B. carinata (1.25, 2.5, and 5 mg·mL^−1); and (iv) 4 vials with increasing concentrations of sinigrin (0.6, 1.2, 2.4 and 4.8 mM). Sinigrin concentrations were chosen on the basis of the sinigrin content of the B. carinata sample used in this study.
(§5) Larvae were fed on both treated and control mediums until pupation (about 48 h). After emergence, resulting adult flies were collected from the treatment vials, sacrificed under CO2 narcotization and stored in a 70% ethanol solution in sterile water.
(§6) Transheterozygous wings (mwhflr^+/mwh^+ flr^3) were mounted and wing hair mutations (spots) were scored. Both dorsal and ventral surfaces of the wings containing 22,000 cells were screened under a photonic microscope (Nikon, Amsterdam, Netherlands) at 400× magnification for the occurrence of individual spots (mwh or flr phenotype) or twin spots (mwh clone adjacent to flr clone).

[3] = tested on: Drosophila melanogaster; experiment: Toxicity in SMART: Drosophila adult survival after simple and combined (H2O2) treatment; format: in vivo; settings: for Survival, average: average over all assayed concentrations
Method: Toxicity (T) was determined as percentage of survival adults with respect to 450 untreated 72 h old larvae from three independent experiments: T = (N° of emerging individuals in treatment/N° of emerging individuals in the negative control) × 100(1)

[4] = tested on: Caenorhabditis elegans; set-up: method as in PMID 19277288; settings: C. elegans, cited from earlier work
[5] = tested on: hamster ovary cell line (CHO); settings: cited from earlier work
[6] = tested on: Drosophila melanogaster; experiment: Antigenotoxicity in SMART, combined treatment with H2O2; format: in vivo; settings: for Large single spots > 2 cells; m = 5: mutation rate (number of spots) / Small single spots 1–2 cells; m = 2: diagnosis / Small single spots 1–2 cells; m = 2: mutation rate (number of spots) / Total spots m = 2: diagnosis / Total spots m = 2: mutation rate (number of spots) / Twin spots m = 5: mutation rate (number of spots): combined with 0.12 M H2O2; as to Small single spots 1–2 cells; m = 2: diagnosis: key: + (positive); − (negative); as to Total spots m = 2: diagnosis: key: + (positive); − (negative)
Method: as §1, §2, §3, §4, §5, §6

[7] = sinigrin 0.60 mM, simple treatment
[8] = sinigrin 1.20 mM, simple treatment
[9] = sinigrin 2.40 mM, simple treatment
[10] = sinigrin 4.81 mM, simple treatment

In the case of `C=CCC(=NOS(=O)(=O)O)S[C@@H]1O[C@H](CO)[C@@H](O)[C@H](O)[C@H]1O` (stereo in doubt) [Sinigrin, sinigrin], the “Effect on induced hepatocarcinogenesis” value [1] is listed as “able to inhibit induced hepatocarcinogenesis”, the “Total mutation rate, average” value ([2]; average over all doses, simple treatment) is listed as 0.15 spots per wing and the “Large single spots > 2 cells; m = 5: diagnosis” value [2, 7] is listed as “−”. The “Large single spots > 2 cells; m = 5: mutation rate (number of spots)” value [2, 7] was 0.03 (1) spots per wing, the “Small single spots 1–2 cells; m = 2: diagnosis” value [2, 7] was “−” and the “Small single spots 1–2 cells; m = 2: mutation rate (number of spots)” value [2, 7] was 0.18 (7) spots per wing. For the same compound, the “Total spots m = 2: diagnosis” value [2, 7] was “−”, the “Total spots m = 2: mutation rate (number of spots)” value (“Total spots m = 2: mutation rate” for short) [2, 7] was 0.20 (8) spots per wing and the “Twin spots m = 5: mutation rate (number of spots)” value (from here on “Twin spots m = 5: mutation rate”) [2, 7] was 0 spots per wing. For the same compound, the “Large single spots > 2 cells; m = 5: diagnosis” value [2, 8] was “−”, the “Large single spots > 2 cells; m = 5: mutation rate (number of spots)” value [2, 8] was 0.03 (1) spots per wing and the “Small single spots 1–2 cells; m = 2: diagnosis” value [2, 8] was “−”. For the same compound, the “Small single spots 1–2 cells; m = 2: mutation rate (number of spots)” value [2, 8] was 0.12 (4) spots per wing, the “Total spots m = 2: diagnosis” value [2, 8] was “−” and the “Total spots m = 2: mutation rate” value [2, 8] was 0.18 (6) spots per wing. The “Twin spots m = 5: diagnosis” value [2, 8] was “−”, the “Twin spots m = 5: mutation rate” value [2, 8] was 0.03 (1) spots per wing and the “Large single spots > 2 cells; m = 5: diagnosis” value [2, 9] was “−”. For the same compound, the “Large single spots > 2 cells; m = 5: mutation rate (number of spots)” value [2, 9] was 0.03 (1) spots per wing, the “Small single spots 1–2 cells; m = 2: diagnosis” value [2, 9] was “−” and the “Small single spots 1–2 cells; m = 2: mutation rate (number of spots)” value [2, 9] was 0.08 (3) spots per wing. For the same compound, the “Total spots m = 2: diagnosis” value [2, 9] was “−”, the “Total spots m = 2: mutation rate” value [2, 9] was 0.11 (4) spots per wing and the “Twin spots m = 5: mutation rate” value [2, 9] was 0 spots per wing. For the same compound, the “Large single spots > 2 cells; m = 5: mutation rate (number of spots)” value [2, 10] was 0 spots per wing, the “Small single spots 1–2 cells; m = 2: diagnosis” value [2, 10] was “−” and the “Small single spots 1–2 cells; m = 2: mutation rate (number of spots)” value [2, 10] was 0.14 (4) spots per wing. For the same compound, the “Total spots m = 2: diagnosis” value [2, 10] was “−”, the “Total spots m = 2: mutation rate” value [2, 10] was 0.14 (4) spots per wing and the “Twin spots m = 5: mutation rate” value [2, 10] was 0 spots per wing. For the same compound, the “Survival, average” value ([3]; combined treatments with 0.12 M H2O2) was 38.11%, the “Survival, average” value ([3]; simple treatments) was 68.27% and the Survival ([3]; sinigrin 0.60 mM, combined with 0.12 M H2O2) was 25.56 * %. For the same compound, the Survival ([3]; sinigrin 0.60 mM, combined with 0.12 M H2O2, listed as sinigrin) was 25.56%, the Survival [3, 7] was 56.44 * % and the Survival ([3]; sinigrin 1.20 mM, combined with 0.12 M H2O2) was 19.33 * %. The Survival ([3]; sinigrin 1.20 mM, combined with 0.12 M H2O2, listed as sinigrin) was 19.33%, the Survival [3, 8] was 78.22 * % and the Survival ([3]; sinigrin 1.20 mM, simple treatment, listed as sinigrin) was 78.22%. For the same compound, the Survival ([3]; sinigrin 2.40 mM, combined with 0.12 M H2O2) was 47.33 * %, the Survival [3, 9] was 61.56 * % and the Survival ([3]; sinigrin 4.81 mM, combined with 0.12 M H2O2) was 60.22 * %. For the same compound, the Survival ([3]; sinigrin 4.81 mM, combined with 0.12 M H2O2, listed as sinigrin) was 60.22%, the Survival [3, 10] was 76.89 * % and the Reduction of survival ([3]; survival average, combined (H2O2) against simple treatments) was ~ 30%. For the same compound, the “Non-toxic up to the concentration” value [4] was no more than 80 g/L, the LC50 ([4]; with addition of myrosinase) was 500 µg/mL (≈ 1390 µM) and the “Chromosome aberrations / sister chromatid exchanges” value ([5]; at concentrations of 2 mg·mL^−1) was “induced chromosome aberrations but not sister chromatid exchanges”. For the same compound, the Genotoxicity and cytotoxicity [5] was “neither genotoxic nor cytotoxic”, the “Large single spots > 2 cells; m = 5: mutation rate (number of spots)” value ([6]; sinigrin 0.60 mM) was 0 spots per wing and the “Small single spots 1–2 cells; m = 2: diagnosis” value ([6]; sinigrin 0.60 mM) was “−”. The “Small single spots 1–2 cells; m = 2: mutation rate (number of spots)” value ([6]; sinigrin 0.60 mM) was 0.19 (6) spots per wing, the “Total spots m = 2: diagnosis” value ([6]; sinigrin 0.60 mM) was “−” and the “Total spots m = 2: mutation rate” value ([6]; sinigrin 0.60 mM) was 0.19 (6) spots per wing. For the same compound, the “Twin spots m = 5: mutation rate” value ([6]; sinigrin 0.60 mM) was 0 spots per wing, the “Large single spots > 2 cells; m = 5: mutation rate (number of spots)” value ([6]; sinigrin 1.20 mM) was 0 spots per wing and the “Small single spots 1–2 cells; m = 2: diagnosis” value ([6]; sinigrin 1.20 mM) was “−”. For the same compound, the “Small single spots 1–2 cells; m = 2: mutation rate (number of spots)” value ([6]; sinigrin 1.20 mM) was 0.20 (4) spots per wing, the “Total spots m = 2: diagnosis” value ([6]; sinigrin 1.20 mM) was “−” and the “Total spots m = 2: mutation rate” value ([6]; sinigrin 1.20 mM) was 0.20 (4) spots per wing. For the same compound, the “Twin spots m = 5: mutation rate” value ([6]; sinigrin 1.20 mM) was 0 spots per wing, the “Large single spots > 2 cells; m = 5: mutation rate (number of spots)” value ([6]; sinigrin 2.40 mM) was 0 spots per wing and the “Small single spots 1–2 cells; m = 2: diagnosis” value ([6]; sinigrin 2.40 mM) was “−”. The “Total spots m = 2: diagnosis” value ([6]; sinigrin 2.40 mM) was “−”, the “Twin spots m = 5: mutation rate” value ([6]; sinigrin 2.40 mM) was 0 spots per wing and the “Percentage of inhibition of clone formation” value ([6]; sinigrin 4.81 mM, against H2O2) was 84.61%. For the same compound, the “Large single spots > 2 cells; m = 5: mutation rate (number of spots)” value ([6]; sinigrin 4.81 mM) was 0 spots per wing, the “Small single spots 1–2 cells; m = 2: diagnosis” value ([6]; sinigrin 4.81 mM) was “−” and the “Small single spots 1–2 cells; m = 2: mutation rate (number of spots)” value ([6]; sinigrin 4.81 mM) was 0.10 (1) spots per wing. The “Total spots m = 2: diagnosis” value ([6]; sinigrin 4.81 mM) was “−”, the “Total spots m = 2: mutation rate” value ([6]; sinigrin 4.81 mM) was 0.10 (1) spots per wing and the “Twin spots m = 5: mutation rate” value ([6]; sinigrin 4.81 mM) was 0 spots per wing.

For `C=CCN=C=S` [AITC, allyl-ITCs, reference compound], the Lethal concentration value [4] is listed as 0.04 g/L and the Genotoxicity ([5]; at high cytotoxic doses) is listed as “not genotoxic”.

In the case of `OO` [H2O2, hydrogen peroxide, reference compound], the “Large single spots > 2 cells; m = 5: diagnosis” value ([2]; in vivo) is reported as “−”, the “Large single spots > 2 cells; m = 5: mutation rate (number of spots)” value ([2]; in vivo) is reported as 0.07 (11) spots per wing and the “Small single spots 1–2 cells; m = 2: diagnosis” value ([2]; in vivo) is reported as “+”. For the same compound, the “Small single spots 1–2 cells; m = 2: mutation rate (number of spots)” value ([2]; in vivo) was 0.60 (94) spots per wing, the “Total spots m = 2: diagnosis” value ([2]; in vivo) was “+” and the “Total spots m = 2: mutation rate” value ([2]; in vivo) was 0.65 (109) spots per wing. The “Twin spots m = 5: diagnosis” value ([2]; in vivo) was “−”, the “Twin spots m = 5: mutation rate” value ([2]; in vivo) was 0.06 (4) spots per wing and the Survival ([3]; H2O2 0.12 M, simple treatment, emerged adults vs H2O control) was 37.78% and 37.78 * %.
